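Tested at 5 concentrations; 48 h exposure; 96-well plates; endpoints linearly interpolated, else capped at highest concentration. The concentration for 50% growth inhibition is given as GI50.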 Active and inactive are the calls of the source. Rule as the data show it: active = GI50 up to about 1.1 µM and inactive = higher.
What was measured:
Assay in all cases: NCI-60 cell line screen, 48 h
SK-MEL-2 = tested on: SK-MEL-2
OVCAR-5 = tested on: OVCAR-5
M14 = tested on: M14
IGROV-1 = tested on: IGROV-1
BT-549 = tested on: BT-549
CCRF-CEM = tested on: CCRF-CEM
HL-60 = tested on: HL-60
MDA-MB-435 = tested on: MDA-MB-435
A549 = tested on: A549
MOLT-4 = tested on: MOLT-4
MDA-MB-231 = tested on: MDA-MB-231
NCI-H23 = tested on: NCI-H23
A498 = tested on: A498
OVCAR-4 = tested on: OVCAR-4
UACC-257 = tested on: UACC-257
SK-MEL-28 = tested on: SK-MEL-28
DU-145 = tested on: DU-145
MCF7 = tested on: MCF7
NCI-H460 = tested on: NCI-H460
SN12C = tested on: SN12C

Structure (SMILES)	GI50 (SK-MEL-2)	GI50 (OVCAR-5)	GI50 (M14)	GI50 (IGROV-1)	GI50 (BT-549)	GI50 (CCRF-CEM)	GI50 (HL-60)	GI50 (MDA-MB-435)	GI50 (A549)	GI50 (MOLT-4)	GI50 (MDA-MB-231)	GI50 (NCI-H23)	GI50 (A498)	GI50 (OVCAR-4)	GI50 (UACC-257)	GI50 (SK-MEL-28)	GI50 (DU-145)	GI50 (MCF7)	GI50 (NCI-H460)	GI50 (SN12C)
COc1ccc(NC(=O)C(=O)C(CC2C(=O)NC(=S)NC2=O)C(=O)c2ccc3ccccc3c2)c([N+](=O)[O-])c1 (configuration not stated)	> 100 µM (inactive)	> 100 µM (inactive)	> 100 µM (inactive)	> 100 µM (inactive)	> 100 µM (inactive)	8.99 µM (inactive)	> 100 µM (inactive)	> 100 µM (inactive)	> 100 µM (inactive)	> 100 µM (inactive)	> 100 µM (inactive)	> 100 µM (inactive)	> 100 µM (inactive)	> 100 µM (inactive)	> 100 µM (inactive)	> 100 µM (inactive)	> 100 µM (inactive)	> 100 µM (inactive)	> 100 µM (inactive)	> 100 µM (inactive)
CCCCc1ccc(Nc2nc(Cl)c3[nH]cnc3n2)cc1	14.6 µM (inactive)	40.6 µM (inactive)	20.9 µM (inactive)	25.6 µM (inactive)	28.1 µM (inactive)	39.1 µM (inactive)	42.1 µM (inactive)	16.8 µM (inactive)	33.5 µM (inactive)	20.4 µM (inactive)	16.6 µM (inactive)	17.7 µM (inactive)	21.4 µM (inactive)	34.4 µM (inactive)	16.2 µM (inactive)	–	17.9 µM (inactive)	20.4 µM (inactive)	–	22.4 µM (inactive)
CCOC(=O)CCC(NC(=O)C(N)Cc1ccc(N(CCCl)CCCl)cc1)C(=O)OCC (configuration not stated)	3.01 µM (inactive)	2.47 µM (inactive)	0.225 µM (active)	1.17 µM (inactive)	4.66 µM (inactive)	< 0.0246 µM (active)	0.0665 µM (active)	1.49 µM (inactive)	2.72 µM (inactive)	0.0451 µM (active)	1.69 µM (inactive)	0.43 µM (active)	32.1 µM (inactive)	0.624 µM (active)	1.22 µM (inactive)	0.719 µM (active)	0.249 µM (active)	0.377 µM (active)	0.0406 µM (active)	1.51 µM (inactive)
C/C(=N/Nc1nc(C)cc(O)n1)C(=O)O	> 100 µM (inactive)	> 100 µM (inactive)	> 100 µM (inactive)	> 100 µM (inactive)	> 100 µM (inactive)	> 100 µM (inactive)	> 100 µM (inactive)	> 100 µM (inactive)	> 100 µM (inactive)	> 100 µM (inactive)	> 100 µM (inactive)	> 100 µM (inactive)	> 100 µM (inactive)	> 100 µM (inactive)	> 100 µM (inactive)	> 100 µM (inactive)	> 100 µM (inactive)	> 100 µM (inactive)	> 100 µM (inactive)	19 µM (inactive)
COc1ccc(Nc2[nH]c(C(C)=O)c(N)c2C(=S)Nc2ccccc2)cc1	32.9 µM (inactive)	> 100 µM (inactive)	26.8 µM (inactive)	78.2 µM (inactive)	78 µM (inactive)	> 100 µM (inactive)	45.1 µM (inactive)	49.4 µM (inactive)	41.9 µM (inactive)	> 100 µM (inactive)	52 µM (inactive)	65 µM (inactive)	> 100 µM (inactive)	36.5 µM (inactive)	52.2 µM (inactive)	36.2 µM (inactive)	> 100 µM (inactive)	23.6 µM (inactive)	48.3 µM (inactive)	86.7 µM (inactive)
Oc1ccccc1-c1n[nH]c(-c2ccccc2O)n1	> 100 µM (inactive)	7.11 µM (inactive)	2.38 µM (inactive)	0.407 µM (active)	> 100 µM (inactive)	1.47 µM (inactive)	1.27 µM (inactive)	> 100 µM (inactive)	2.21 µM (inactive)	1.24 µM (inactive)	1.44 µM (inactive)	1.71 µM (inactive)	8.51 µM (inactive)	2.36 µM (inactive)	–	> 100 µM (inactive)	8.13 µM (inactive)	0.577 µM (active)	0.573 µM (active)	2.17 µM (inactive)
N#CSC#Cc1ccc(C#CSC#N)cc1	20.2 µM (inactive)	19.2 µM (inactive)	–	15.5 µM (inactive)	17.9 µM (inactive)	10.1 µM (inactive)	54.8 µM (inactive)	20.9 µM (inactive)	17.8 µM (inactive)	36.2 µM (inactive)	17.8 µM (inactive)	18.7 µM (inactive)	20.2 µM (inactive)	8.81 µM (inactive)	17.3 µM (inactive)	26.2 µM (inactive)	15.1 µM (inactive)	19.9 µM (inactive)	19.9 µM (inactive)	18 µM (inactive)
Cn1nnc2c(C(N)=S)ncn2c1=O	> 100 µM (inactive)	> 100 µM (inactive)	> 100 µM (inactive)	> 100 µM (inactive)	> 100 µM (inactive)	> 100 µM (inactive)	> 100 µM (inactive)	> 100 µM (inactive)	> 100 µM (inactive)	> 100 µM (inactive)	> 100 µM (inactive)	> 100 µM (inactive)	> 100 µM (inactive)	> 100 µM (inactive)	> 100 µM (inactive)	> 100 µM (inactive)	> 100 µM (inactive)	> 100 µM (inactive)	> 100 µM (inactive)	> 100 µM (inactive)
Oc1c(Br)cc(CN(Cc2cc(Br)c(O)c(Br)c2)C2CCCCC2)cc1Br	> 100 µM (inactive)	> 100 µM (inactive)	> 100 µM (inactive)	> 100 µM (inactive)	> 100 µM (inactive)	> 100 µM (inactive)	> 100 µM (inactive)	> 100 µM (inactive)	> 100 µM (inactive)	> 100 µM (inactive)	> 100 µM (inactive)	> 100 µM (inactive)	> 100 µM (inactive)	> 100 µM (inactive)	> 100 µM (inactive)	> 100 µM (inactive)	> 100 µM (inactive)	> 100 µM (inactive)	–	> 100 µM (inactive)
C1COC(NC(C2CC2)C2CC2)=N1 [RILMENIDINE]	> 100 µM (inactive)	> 100 µM (inactive)	> 100 µM (inactive)	> 100 µM (inactive)	> 100 µM (inactive)	> 100 µM (inactive)	> 100 µM (inactive)	> 100 µM (inactive)	> 100 µM (inactive)	> 100 µM (inactive)	> 100 µM (inactive)	> 100 µM (inactive)	> 100 µM (inactive)	> 100 µM (inactive)	> 100 µM (inactive)	> 100 µM (inactive)	> 100 µM (inactive)	> 100 µM (inactive)	> 100 µM (inactive)	–
CCC1c2[nH]c3ccccc3c2C[C@H]2C(=O)NC(CCCCNC(=O)OC(C)(C)C)C(=O)N12 (some centres not stated)	26.6 µM (inactive)	68.4 µM (inactive)	17.5 µM (inactive)	36.1 µM (inactive)	24.1 µM (inactive)	–	31.8 µM (inactive)	20.5 µM (inactive)	34.3 µM (inactive)	19.1 µM (inactive)	32.7 µM (inactive)	25.9 µM (inactive)	52.8 µM (inactive)	28.2 µM (inactive)	21.2 µM (inactive)	41.1 µM (inactive)	48.4 µM (inactive)	35.8 µM (inactive)	30.1 µM (inactive)	27.5 µM (inactive)
COc1cc(C)c2c(c1C=O)Oc1c(c(C)c(O)c3c1C(O)OC3=O)OC2=O (configuration not stated) [STICTIC ACID]	> 10 µM (inactive)	> 100 µM (inactive)	37.4 µM (inactive)	23.1 µM (inactive)	35.2 µM (inactive)	> 10 µM (inactive)	23.3 µM (inactive)	50.5 µM (inactive)	> 100 µM (inactive)	17.6 µM (inactive)	23.3 µM (inactive)	26.5 µM (inactive)	31.2 µM (inactive)	25.5 µM (inactive)	47.9 µM (inactive)	> 100 µM (inactive)	87.5 µM (inactive)	22.4 µM (inactive)	–	> 100 µM (inactive)
O=C1CSC(c2c[nH]c3ccccc23)N1c1ccc(Cl)cc1 (configuration not stated)	> 100 µM (inactive)	> 100 µM (inactive)	> 100 µM (inactive)	> 100 µM (inactive)	> 100 µM (inactive)	–	> 100 µM (inactive)	> 100 µM (inactive)	> 100 µM (inactive)	> 100 µM (inactive)	> 100 µM (inactive)	> 100 µM (inactive)	> 100 µM (inactive)	> 100 µM (inactive)	> 100 µM (inactive)	> 100 µM (inactive)	> 100 µM (inactive)	> 100 µM (inactive)	> 100 µM (inactive)	> 100 µM (inactive)
Nc1ccc(-c2nc3ccccc3s2)cc1C(F)(F)F	17.2 µM (inactive)	–	14.9 µM (inactive)	–	13.2 µM (inactive)	21.1 µM (inactive)	12.5 µM (inactive)	16.5 µM (inactive)	17.8 µM (inactive)	19.9 µM (inactive)	13.2 µM (inactive)	13.5 µM (inactive)	17.6 µM (inactive)	–	15.6 µM (inactive)	17.3 µM (inactive)	15.8 µM (inactive)	1.52 µM (inactive)	–	13.6 µM (inactive)

Reference: ChEMBL document CHEMBL1201862, “PubChem BioAssay data set” (2004)
